Biological target: T1, recombinant human GST-SYK (Homo sapiens, UniProt P43405)
T1 construct: purchased Carna Biosciences 08-176
Assay: Homogeneous Time-Resolved Fluorescence (HTRF) assay for the recombinant human Syk enzyme
Type: biochemical
Details: recombinant human GST-SYK 5 pM, ATP 25 μM, read-out: rhSYK IC50
Method: Homogeneous Time-Resolved Fluorescence (HTRF) Assay for the Recombinant Human Syk Enzyme
A recombinant GST-hSYK fusion protein was used to measure potency of compounds to inhibit human Syk activity. The recombinant human GST-SYK (Carna Biosciences #08-176) (5 pM final concentration) was incubated with various concentrations of the inhibitor diluted in DMSO (0.1% final concentration) for 10 minutes at room temperature in 15 mM Tris-HCl (pH 7.5), 0.01% tween 20, 2 mM DTT in 384 well plate format. To initiate the reaction the biotinylated substrate peptide (250 nM final concentration) that contains the phosphorylation site for Syk was added with magnesium (5 mM final concentration) and ATP (25 μM final concentration). Final volume of the reaction was 10 μL. Phosphorylation of the peptide was allowed to proceed for 45′ at room temperature. To quench the reaction and detect the phosphorylated product, 2 nM of a Europium-anti-phosphotyrosine antibody (Perkin Elmer #AD0161) and 70 nM SA-APC (Perkin-Elmer #CR130-100) were added together in 15 mM Tris pH 7.5, 40 mM EDTA, 0.01% tween 20. Final volume of the quenching solution was 10 μL.
The resulting HTRF signal was measured after 30 minutes on an EnVision (Perkin-Elmer) reader using a time-resolved fluorescence protocol. Table A below lists activities as IC50 values (nM) for representative compounds of the invention.

Compound | IC50
Cc1cc(Nc2cc(C(F)(F)F)ccn2)nc(-c2cnc(C3(O)CCC3)s2)n1 [Example 4.5, 1-[5-(4-methyl-6-{[4-(trifluoromethyl)pyridin-2-yl]amino}pyrimidin-2-yl)-1,3-thiazol-2-yl]cyclobutanol] | 4.39 nM
CC1(C)CC(O)(c2ncc(-c3nccc(Nc4cc(C(F)(F)F)ccn4)n3)s2)CCC1C(=O)O (single isomer, unassigned) [Example 1.14, 4-hydroxy-2,2-(1S,4R or 1R,4S)-dimethyl-4-[5-(4-{[4-(trifluoromethyl)pyridin-2-yl]amino}pyrimidin-2-yl)-1,3-thiazol-2-yl] cyclohexane-carboxylic acid] | 12.1 nM
COc1ncc(Nc2nccc(C(F)(F)F)n2)cc1-c1cnc([C@@]2(O)CC[C@H](C(=O)O)C(C)(C)C2)s1 (single isomer, unassigned) [Example 4.19, (1S,4R or 1R,4S)-4-hydroxy-4-[5-(2-methoxy-5-{[4-(trifluoromethyl)pyrimidin-2-yl]amino}pyridin-3-yl)-1,3-thiazol-2-yl]-2,2-dimethylcyclohexane carboxylic acid] | 4.13 nM
Cc1cc(Nc2cc(C(F)(F)F)ncn2)nc(-c2cnc(C3(O)CCC(C(N)=O)C(C)C3)s2)c1 (single isomer, unassigned) [Example 1.17, rel-(1S,2R,4R or S)-4-hydroxy-2-methyl-4-[5-(4-methyl-6-{[6-(trifluoromethyl)pyrimidin-4-yl]amino}pyridin-2-yl)-1,3-thiazol-2-yl] cyclohexane-carboxamide] | 1.25 nM
Cc1cnnc(Nc2cc(C)cc(-c3cnc([C@@]4(O)CC[C@H](C(=O)O)C(C)(C)C4)s3)n2)c1 (single isomer, unassigned) [Example 3.3, (1S,4R or 1R,4S)-4-hydroxy-2,2-dimethyl-4-(5-{4-methyl-6-[(5-methylpyridazin-3-yl)amino]pyridin-2-yl}-1,3-thiazol-2-yl)cyclohexanecarboxylic acid] | 182 nM
CCCCOC(=O)[C@H]1CC[C@H](C(C)(O)c2ncc(-c3cc(Nc4nccc(C(F)(F)F)n4)cc(C)n3)s2)CC1 (single isomer, unassigned) [Example 4.6, butyl (trans)-4-((R or S)-1-hydroxy-[5-(6-methyl-4-{[4-(trifluoromethyl)pyrimidin-2-yl]amino}pyridin-2-yl)-1,3-thiazol-2-yl]ethyl}cyclohexane carboxylate] | 375 nM
COc1cc(Nc2nccc(C(F)(F)F)n2)cc(-c2cnc(C(C)(O)[C@H]3CC[C@H](C(=O)O)CC3)s2)n1 (single isomer, unassigned) [Example 4.21, (trans)-4-((R or S)-1-hydroxy-1-[5-(6-methoxy-4-{[4-(trifluoromethyl)pyrimidin-2-yl]amino}pyridin-2-yl)-1,3-thiazol-2-yl]ethyl}cyclohexane carboxylic acid] | 2.12 nM
Cc1ccnc(Nc2ccc(-c3cnc(C4(O)CCC(C(=O)O)CC4)s3)cc2C)c1 (stereo not drawn) [Example 4.13, cis-4-hydroxy-4-(5-{3-methyl-4-[(4-methylpyridin-2-yl)amino]phenyl}-1,3-thiazol-2-yl)cyclohexanecarboxylic acid] | 43.6 nM
COc1cc(Nc2cc(C)cc(-c3cnc([C@@]4(O)CC[C@H](C(N)=O)C(C)(C)C4)s3)n2)ncn1 (single isomer, unassigned) [Example 3.1, (1S,4R or 1R,4S)-4-Hydroxy-4-(5-{6-[(6-methoxypyrimidin-4-yl)amino]-4-methylpyridin-2-yl}-1,3-thiazol-2-yl)-2,2-dimethylcyclohexanecarboxamide] | 2.5 nM
Cc1cc(Nc2nccc(C(F)(F)F)n2)cc(-c2cnc(C3(O)CCCc4cc(C(=O)O)ccc43)s2)n1 (single isomer, unassigned) [Example 4.25, (R or S)-5-hydroxy-5-[5-(6-methyl-4-{[4-(trifluoromethyl)pyrimidin-2-yl]amino}pyridin-2-yl)-1,3-thiazol-2-yl]-5,6,7,8-tetrahydronaphthalene-2-carboxylic acid] | 0.397 nM
CC(O)(c1ncc(-c2cc(Nc3nccc(C(F)(F)F)n3)cc(Cl)n2)s1)[C@H]1CC[C@H](C(=O)O)CC1 (single isomer, unassigned) [Example 4.23, (trans)-4-((R or S)-1-[5-(6-chloro-4-{[4-(trifluoromethyl)pyrimidin-2-yl]amino}pyridin-2-yl)-1,3-thiazol-2-yl]-1-hydroxyethyl} cyclohexanecarboxylic acid] | 5.2 nM
CCOc1cc(Nc2nccc(C(F)(F)F)n2)cc(-c2cnc(C3(O)CCC3)s2)n1 [Example 4.1, 1-(5-(6-Ethoxy-4-((4-(trifluoromethyl)pyrimidin-2-yl)amino)pyridin-2-yl)thiazol-2-yl)cyclobutanol] | 111 nM
Cc1cc(Nc2cc(C)ccn2)cc(-c2cnc(C(C)(O)C3CCC(C(=O)O)CC3)s2)c1 (single isomer, unassigned) [Example 4.15, (trans)-4-((R or S)-[1-hydroxy-1-(5-{3-methyl-5-[(4-methylpyridin-2-yl)amino]phenyl}-1,3-thiazol-2-yl)ethyl]cyclohexanecarboxylic acid] | 29.3 nM
Cc1cc(Nc2cc(C3CCCCC3)ncn2)nc(-c2cnc(C3(O)CCCc4cc(C(=O)O)ccc43)s2)c1 (single isomer, unassigned) [Example 2.10, (R or S)-5-(5-{6-[(6-cyclohexylpyrimidin-4-yl)amino]-4-methylpyridin-2-yl}-1,3-thiazol-2-yl)-5-hydroxy-5,6,7,8-tetrahydronaphthalene-2-carboxylic acid] | 1.12 nM

Continued by falling IC50, values first:

IC50 | Compound
2820 nM | Cc1cc(Nc2cccc(C(F)(F)F)n2)cc(-c2cnc(C3(O)CCC(C(=O)O)C(C)(C)C3)s2)c1 (single isomer, unassigned) [Example 2.5, (1S,4R or 1R,4S)-4-hydroxy-2,2-dimethyl-4-[5-(3-methyl-5-{[6-(trifluoromethyl)pyridin-2-yl]amino}phenyl)-1,3-thiazol-2-yl]cyclohexane-carboxylic acid]
1010 nM | Cc1cc(Nc2nccnn2)cc(-c2cnc(C3(O)CCC3)s2)c1 [Example 3.2, 1-{5-[3-methyl-5-(1,2,4-triazin-3-ylamino)phenyl]-1,3-thiazol-2-yl}cyclobutanol]
14.5 nM | Cc1cc(Nc2cc(C)ccn2)cc(-c2cnc(C(C)(O)[C@H]3CC[C@H](C(=O)O)CC3)s2)c1 (single isomer, unassigned) [Example 4.14, (trans)-4-((R or S)-1-hydroxy-1-(5-{3-methyl-5-[(4-methylpyridin-2-yl)amino]phenyl}-1,3-thiazol-2-yl)ethyl]cyclohexane carboxylic acid]
5.91 nM | Cc1cc(Nc2nccc(C(F)(F)F)n2)cc(-c2cnc(C(C)(O)c3ccc(C(=O)O)cc3)s2)n1 (single isomer, unassigned) [Example 1.21, (R or S)-4-(1-hydroxy-1-(5-(6-methyl-4-((4-(trifluoromethyl)pyrimidin-2-yl)amino)pyridin-2-yl)thiazol-2-yl)ethyl)benzoic acid]
1.1 nM | Cc1cc(Nc2nccc(OC(C)C)n2)cc(-c2cnc([C@@]3(O)CC[C@H](C(N)=O)C(C)(C)C3)s2)n1 (single isomer, unassigned) [Example 1.1, (1S,4R or 1R,4S)-4-hydroxy-4-(5-(4-((4-isopropoxypyrimidin-2-yl)amino)-6-methylpyridin-2-yl)thiazol-2-yl)-2,2-dimethylcyclohexanecarboxamide]
0.516 nM | Cc1cc(Nc2cc(C(F)(F)F)ncn2)nc(-c2cnc(C3(O)CCCc4cc(C(=O)O)ccc43)s2)c1 (single isomer, unassigned) [Example 2.7, (R or S)-5-hydroxy-5-[5-(4-methyl-6-{[6-(trifluoromethyl)pyrimidin-4-yl]amino}pyridin-2-yl)-1,3-thiazol-2-yl]-5,6,7,8-tetrahydronaphthalene-2-carboxylic acid]
0.475 nM | Cc1cc(Nc2cc(C(F)(F)F)ncn2)nc(-c2cnc([C@@]3(O)CC[C@H](C(=O)O)[C@H](C)C3)s2)c1 (single isomer, unassigned) [Example 1.4, rel-(1S,2R,4R or S)-4-hydroxy-2-methyl-4-[5-(4-methyl-6-{[6-(trifluoromethyl)pyrimidin-4-yl]amino}pyridin-2-yl)-1,3-thiazol-2-yl]cyclohexane-carboxylic acid]
0.266 nM | Cc1cc(Nc2nccc(C(F)(F)F)n2)cc(-c2cnc(C(C)(O)[C@H]3CC[C@H](C(=O)O)CC3)s2)n1 (single isomer, unassigned) [Example 4.8, (trans)-4-((R or S)-1-hydroxy-1-[5-(6-methyl-4-{[4-(trifluoromethyl)pyrimidin-2-yl]amino}pyridin-2-yl)-1,3-thiazol-2-yl]ethyl}cyclohexane carboxylic acid]
0.123 nM | Cc1cc(Nc2cc(C(F)(F)F)ccn2)nc(-c2cnc(C3(O)CCC(C(=O)O)C(C)(C)C3)s2)n1 (single isomer, unassigned) [Example 1.11, (1S,4R or 1R,4S)-4-hydroxy-2,2-dimethyl-4-[5-(4-methyl-6-{[4-(trifluoromethyl)pyridin-2-yl]amino}pyrimidin-2-yl)-1,3-thiazol-2-yl] cyclohexane-carboxylic acid]
